Laboratory results reported in patent US12686679B2, “Crystals of alkynyl-containing compound, salt and solvate thereof, preparation method, and applications” (GUANGZHOU HEALTHQUEST PHARMA CO., LTD., priority 2020, dated 2026).

What was measured:
Type in all cases: physicochemical
[1] = Suspension stirring experiment of crystal form I (stability in different solvents); details: for 50° C. suspension (solid form) / Room temperature suspension (solid form): stirred 3 days
Description: (§1) Using X-ray powder diffractometer (Brooke D8 advance or D2 Phase) was used to characterize the solid. • Scanning angle: […]-40 (2θ). • Step size: 0.02° (2θ). • Scan speed: 0.3 sec/step (D8), 0.2 sec/step (D2). • Light tube voltage: 40 KV (D8), 30 KV (D2). • Light tube current: 40 mA (D8), 10 mA (D2). • Rotation: On. • Sample tray: zero background sample tray. TGA
Weigh the sample crystal form I and place it in a sample bottle, and then add a solvent to prepare a suspension. The resulting suspension is stirred at room temperature and 50° C. for 3 days, then filtered and collected the solid, and the solid is characterized.

[2] = Stability test of crystal form I (different temperature, humidity and light)
Description: as §1
The stability of the crystal form I prepared in Examples 1-13 was studied. Before the test, the single impurities of the crystal form I were less than 0.05%, and the total impurities were less than 0.05%.
Place the crystal form I under 60° C., high humidity, and light conditions, and sample at 0 days/5 days/10 days to investigate its content and related substances. The lighting conditions are: total illuminance: ≥1.2×106 Lux·hr, near ultraviolet energy ≥200 w·hr/m2.

[3] = Hygroscopicity test of crystal form I, dynamic moisture adsorption (DVS)
Description: (§2) DVS analysis of solids using IGASORP dynamic water adsorption instrument. • temperature: 25° C. • airflow: 250 mL/min. • Scan loop: 2. • Minimum test time: 30 min. • Longest test time: 2 h. • Waiting for balance: 98%. PLM
The hygroscopicity of the crystal form I prepared in Examples 1-13 was studied, and 10 mg of the crystal form I was taken for a dynamic moisture adsorption (DVS) test.

[4] = Stability test of crystal form II (different temperature and humidity)
[5] = Suspension stirring experiment of crystal form II (stability in different solvents); details: for Room temperature suspension (solid form) / 50° C. suspension (solid form): stirred 3-4 days
Description: as §1
The resulting suspension is stirred at room temperature and 50° C. for 3-4 days, then filtered and collected the solid. After vacuum drying at room temperature, the solid was characterized.

[6] = Hygroscopicity study of crystal form II, dynamic moisture adsorption (DVS); details: for DVS (90% RH): moisture absorption at 90% relative humidity (RH), 25° C.
Description: as §2
The crystalline form II prepared in Example 21 was used to conduct a moisture absorption study, and about 10 mg of crystalline form II was taken for a dynamic moisture adsorption (DVS) test. The conclusions are described in Table 24 below

[7] = 0 day (before the test), listed as Form I
[8] = 0 day (before the test), listed as crystal form I
[9] = 60° C., high humidity and light conditions on 5 and 10 days
[10] = 0 day (before the test), listed as crystal form II
[11] = 60° C. and high humidity in 5 and 10 days

## Cc1ccc(C(=O)Nc2ccc(CN3CCN(C)CC3)c(C(F)(F)F)c2)cc1C#Cc1cnc2[nH]ncc2c1 [Crystal form I, 3-((1H-pyrazolo[3,4-b]pyridin-5-yl)ethynyl)-4-methyl-N-(4-((4-methylpiperazine-1-yl)methyl)-3-(trifluoromethyl)phenyl) benzamide]
[1]; Acetone
  50° C. suspension (solid form): Form I
  Room temperature suspension (solid form): Form I
[1]; Acetonitrile
  50° C. suspension (solid form): Form I
  Room temperature suspension (solid form): Form I
[1]; Acetonitrile:water 1:1 (v:v)
  50° C. suspension (solid form): Form I
  Room temperature suspension (solid form): Form I
[1]; Butanone
  50° C. suspension (solid form): Form I
  Room temperature suspension (solid form): Form I
[1]; Ethanol
  50° C. suspension (solid form): Form I
  Room temperature suspension (solid form): Form I
[1]; Ethyl acetate
  50° C. suspension (solid form): Form I
  Room temperature suspension (solid form): Form I
[1]; Isopropanol
  50° C. suspension (solid form): Form I
  Room temperature suspension (solid form): Form I
[1]; Isopropyl acetate
  50° C. suspension (solid form): Form I
  Room temperature suspension (solid form): Form I
[1]; Methanol
  50° C. suspension (solid form): Form I
  Room temperature suspension (solid form): Form I
[1]; Methyl tert-butyl ether
  50° C. suspension (solid form): Form I
  Room temperature suspension (solid form): Form I
[1]; suspension stirring, room temperature and 50° C.
  stability in a variety of solvents (conclusion): good stability
[2]; 0 day
  XPRD: Form I
  content: 101.2%
[2]; [7]
  Single impurity: <0.05%
  Total impurities: <0.05%
[2]; [8]
  Single impurity: less than 0.05%
  Total impurities: less than 0.05%
[2]; [9]
  content: ~100%
  single impurity content: less than 0.05%
  total impurity content: less than 0.05%
[2]; 60° C., high humidity and light conditions, 5 and 10 days
  stability (conclusion): good stability
[2]; 5 days-60° C.
  Single impurity: <0.05%
  Total impurities: <0.05%
  XPRD: Form I
  content: 100.8%
[2]; 5 days-high humidity
  Single impurity: <0.05%
  Total impurities: <0.05%
  XPRD: Form I
  content: 101.4%
[2]; 5 days-light
  Single impurity: <0.05%
  Total impurities: <0.05%
  XPRD: Form I
  content: 101.5%
[2]; 10 days-60° C.
  Single impurity: <0.05%
  Total impurities: <0.05%
  XPRD: Form I
  content: 100.8%
[2]; 10 days-high humidity
  Single impurity: <0.05%
  Total impurities: <0.05%
  XPRD: Form I
  content: 100.9%
[2]; 10 days-light
  Single impurity: <0.05%
  Total impurities: <0.05%
  XPRD: Form I
  content: 100.4%
[3]; 90% RH, 25° C.
  DVS (90% RH): 0.12%
[3]; XRPD after DVS
  DVS XRPD: Unchanged
[3]; during storage
  hygroscopicity (conclusion): not easy to absorb water

## Cc1ccc(C(=O)Nc2ccc(CN3CCN(C)CC3)c(C(F)(F)F)c2)cc1C#Cc1cnc2[nH]ncc2c1.O=C(O)/C=C/C(=O)O [Crystal form II, 3-((1H-pyrazolo[3,4-b]pyridin-5-yl)ethynyl)-4-methyl-N-(4-((4-methylpiperazine-1-yl)methyl)-3-(trifluoromethyl)phenyl) benzamide fumarate]
[4]; 0 day
  XPRD: Crystal Form II
  content: 98.7%
[4]; 0 day (before the test)
  Single impurity: <0.05%
  Total impurities: <0.05%
[4]; [10]
  Single impurity: less than 0.05%
  Total impurities: less than 0.05%
[4]; [11]
  The content (single impurity): less than 0.05
  content: ≥ 98.5%
  total impurity content: less than 0.05
[4]; 60° C. and high humidity, 5 and 10 days
  stability (conclusion): good stability
[4]; 5 days-60° C.
  Single impurity: <0.05%
  Total impurities: <0.05%
  XPRD: Crystal Form II
  content: 99.5%
[4]; 5 days-high (high humidity)
  Single impurity: <0.05%
  Total impurities: <0.05%
  XPRD: Crystal Form II
  content: 99.4%
[4]; 10 days-60° C.
  Single impurity: <0.05%
  Total impurities: <0.05%
  XPRD: Crystal Form II
  content: 99.2%
[4]; 10 days-high (high humidity)
  Single impurity: <0.05%
  Total impurities: <0.05%
  XPRD: Crystal Form II
  content: 99.0%
[5]; 1,4-dioxane
  Room temperature suspension (solid form): Crystal Form II
[5]; Acetone:water 1:2 (v:v)
  50° C. suspension (solid form): Crystal Form XIV
[5]; Acetonitrile
  50° C. suspension (solid form): Crystal Form II
  Room temperature suspension (solid form): Crystal Form II
[5]; Ethyl acetate
  50° C. suspension (solid form): Crystal Form II
  Room temperature suspension (solid form): Crystal Form II
[5]; Isopropanol
  50° C. suspension (solid form): Crystal Form II
  Room temperature suspension (solid form): Crystal Form II
[5]; Isopropyl acetate
  Room temperature suspension (solid form): Crystal Form II
[5]; Methanol:water 3:1 (v:v)
  Room temperature suspension (solid form): Crystal Form II
[5]; N-heptane
  Room temperature suspension (solid form): Crystal Form II
[5]; Tetrahydrofuran
  50° C. suspension (solid form): Crystal Form II
  Room temperature suspension (solid form): Crystal Form II
[5]; ethanol
  50° C. suspension (solid form): Crystal Form II
  Room temperature suspension (solid form): Crystal Form II
[5]; methanol
  50° C. suspension (solid form): Crystal Form II
  Room temperature suspension (solid form): Crystal Form II
[5]; suspension stirring in solvents
  stability at room temperature and 50° C. (conclusion): good stability
[6]; during storage
  hygroscopicity (conclusion): not easy to absorb water
[6]; listed as Crystal Form II
  XRPD before and after DVS: Unchanged
  DVS (90% RH): 1.66%
[6]; listed as crystal form II
  XRPD before and after DVS: has not changed
  DVS (90% RH): 1.66%
